Source: the NIST ThermoML archive (doi:10.1021/acs.jced.8b00153)
Values joined by “and” are separate entries in the source; they are usually repeats but may differ in a detail not shown here. Equal entries are not always repeated.

Conditions: for speed of sound / mass density / viscosity / vapor or sublimation pressure: Liquid; for speed of sound: Frequency=3 MHz, Single path-length method; for mass density: Vibrating tube method; for surface tension liquid-gas: Drop volume; for viscosity: Capillary tube (Ostwald / Ubbelohde) method; for vapor or sublimation pressure: Ebulliometric method (Recirculating still)

CCc1ccco1 [2-ethylfuran]
Conditions | mass density | speed of sound [m/s] | viscosity [mPa·s]
313.15 K, 100 kPa | 882.52 kg/m3 and 882.49 kg/m3 | 1129.2 | –
313.15 K, 2000 kPa | 884.62 kg/m3 | – | –
313.15 K, 5000 kPa | 887.63 kg/m3 | – | –
313.15 K, 7000 kPa | 889.75 kg/m3 | – | –
313.15 K, 10000 kPa | 892.61 kg/m3 | – | –
313.15 K, 15000 kPa | 897.4 kg/m3 | – | –
313.15 K, 20000 kPa | 901.8 kg/m3 | – | –
313.15 K, 25000 kPa | 906.18 kg/m3 | – | –
313.15 K, 30000 kPa | 910.18 kg/m3 | – | –
313.15 K, 35000 kPa | 914.06 kg/m3 | – | –
313.15 K, 40000 kPa | 917.85 kg/m3 | – | –
313.15 K, 45000 kPa | 921.58 kg/m3 | – | –
313.15 K, 50000 kPa | 925.04 kg/m3 | – | –
313.15 K, 55000 kPa | 928.5 kg/m3 | – | –
313.15 K, 60000 kPa | 931.93 kg/m3 | – | –
313.15 K, 65000 kPa | 935.06 kg/m3 | – | –
315.65 K, 100 kPa | 879.73 kg/m3 | 1118.1 | 0.4049
318.15 K, 100 kPa | 876.92 kg/m3 and 876.88 kg/m3 | 1107.4 | 0.3962
318.15 K, 2000 kPa | 879.13 kg/m3 | – | –
318.15 K, 5000 kPa | 882.2 kg/m3 | – | –
318.15 K, 7000 kPa | 884.37 kg/m3 | – | –
318.15 K, 10000 kPa | 887.44 kg/m3 | – | –
318.15 K, 15000 kPa | 892.29 kg/m3 | – | –
318.15 K, 20000 kPa | 896.91 kg/m3 | – | –
318.15 K, 25000 kPa | 901.27 kg/m3 | – | –
318.15 K, 30000 kPa | 905.42 kg/m3 | – | –
318.15 K, 35000 kPa | 909.5 kg/m3 | – | –
318.15 K, 40000 kPa | 913.4 kg/m3 | – | –
318.15 K, 45000 kPa | 917.1 kg/m3 | – | –
318.15 K, 50000 kPa | 920.67 kg/m3 | – | –
318.15 K, 55000 kPa | 924.18 kg/m3 | – | –
318.15 K, 60000 kPa | 927.71 kg/m3 | – | –
318.15 K, 65000 kPa | 930.91 kg/m3 | – | –
320.65 K, 100 kPa | 874.11 kg/m3 | 1096.5 | 0.3885
323.15 K, 100 kPa | 871.29 kg/m3 and 871.23 kg/m3 | 1085.6 | 0.3794
323.15 K, 2000 kPa | 873.56 kg/m3 | – | –
323.15 K, 5000 kPa | 876.77 kg/m3 | – | –
323.15 K, 7000 kPa | 878.96 kg/m3 | – | –
323.15 K, 10000 kPa | 882.17 kg/m3 | – | –
323.15 K, 15000 kPa | 887.15 kg/m3 | – | –
323.15 K, 20000 kPa | 891.93 kg/m3 | – | –
323.15 K, 25000 kPa | 896.47 kg/m3 | – | –
323.15 K, 30000 kPa | 900.65 kg/m3 | – | –
323.15 K, 35000 kPa | 904.8 kg/m3 | – | –
323.15 K, 40000 kPa | 908.8 kg/m3 | – | –
323.15 K, 45000 kPa | 912.67 kg/m3 | – | –
323.15 K, 50000 kPa | 916.35 kg/m3 | – | –
323.15 K, 55000 kPa | 919.97 kg/m3 | – | –
323.15 K, 60000 kPa | 923.48 kg/m3 | – | –
323.15 K, 65000 kPa | 926.81 kg/m3 | – | –
325.65 K, 100 kPa | 868.46 kg/m3 | 1074.8 | 0.3706
328.15 K, 100 kPa | 865.62 kg/m3 and 865.59 kg/m3 | 1063.8 | 0.3619
328.15 K, 2000 kPa | 867.92 kg/m3 | – | –
328.15 K, 5000 kPa | 871.27 kg/m3 | – | –
328.15 K, 7000 kPa | 873.57 kg/m3 | – | –
328.15 K, 10000 kPa | 876.84 kg/m3 | – | –
328.15 K, 15000 kPa | 882.03 kg/m3 | – | –
328.15 K, 20000 kPa | 886.97 kg/m3 | – | –
328.15 K, 25000 kPa | 891.57 kg/m3 | – | –
328.15 K, 30000 kPa | 895.96 kg/m3 | – | –
328.15 K, 35000 kPa | 900.23 kg/m3 | – | –
328.15 K, 40000 kPa | 904.35 kg/m3 | – | –
328.15 K, 45000 kPa | 908.24 kg/m3 | – | –
328.15 K, 50000 kPa | 912.04 kg/m3 | – | –
328.15 K, 55000 kPa | 915.63 kg/m3 | – | –
328.15 K, 60000 kPa | 919.32 kg/m3 | – | –
328.15 K, 65000 kPa | 922.64 kg/m3 | – | –
330.65 K, 100 kPa | 862.76 kg/m3 | 1053.7 | 0.3536
333.15 K, 100 kPa | 859.9 kg/m3 and 859.9 kg/m3 | 1042.2 | 0.3455
333.15 K, 2000 kPa | 862.3 kg/m3 | – | –
333.15 K, 5000 kPa | 865.81 kg/m3 | – | –
333.15 K, 7000 kPa | 868.2 kg/m3 | – | –
333.15 K, 10000 kPa | 871.58 kg/m3 | – | –
333.15 K, 15000 kPa | 876.87 kg/m3 | – | –
333.15 K, 20000 kPa | 881.93 kg/m3 | – | –
333.15 K, 25000 kPa | 886.74 kg/m3 | – | –
333.15 K, 30000 kPa | 891.26 kg/m3 | – | –
333.15 K, 35000 kPa | 895.59 kg/m3 | – | –
333.15 K, 40000 kPa | 899.79 kg/m3 | – | –
333.15 K, 45000 kPa | 903.78 kg/m3 | – | –
333.15 K, 50000 kPa | 907.66 kg/m3 | – | –
333.15 K, 55000 kPa | 911.34 kg/m3 | – | –
333.15 K, 60000 kPa | 915.07 kg/m3 | – | –
333.15 K, 65000 kPa | 918.6 kg/m3 | – | –
335.65 K, 100 kPa | 857.02 kg/m3 | 1032.1 | 0.3372
338.15 K, 100 kPa | 854.13 kg/m3 and 854.07 kg/m3 | 1020.5 | 0.33
338.15 K, 2000 kPa | 856.63 kg/m3 | – | –
338.15 K, 5000 kPa | 860.21 kg/m3 | – | –
338.15 K, 7000 kPa | 862.69 kg/m3 | – | –
338.15 K, 10000 kPa | 866.19 kg/m3 | – | –
338.15 K, 15000 kPa | 871.73 kg/m3 | – | –
338.15 K, 20000 kPa | 876.98 kg/m3 | – | –
338.15 K, 25000 kPa | 881.86 kg/m3 | – | –
338.15 K, 30000 kPa | 886.43 kg/m3 | – | –
338.15 K, 35000 kPa | 890.92 kg/m3 | – | –
338.15 K, 40000 kPa | 895.2 kg/m3 | – | –
338.15 K, 45000 kPa | 899.36 kg/m3 | – | –
338.15 K, 50000 kPa | 903.34 kg/m3 | – | –
338.15 K, 55000 kPa | 907.07 kg/m3 | – | –
338.15 K, 60000 kPa | 910.92 kg/m3 | – | –
338.15 K, 65000 kPa | 914.41 kg/m3 | – | –

Conditions | surface tension liquid-gas [mN/m] | vapor or sublimation pressure [kPa]
315.65 K | 22.66 | –
317.62 K | – | 18.64
318.15 K | 22.3 | –
320.45 K | – | 20.98
320.65 K | 22.07 | –
322.48 K | – | 22.8
323.15 K | 21.77 | –
324.89 K | – | 25.18
325.65 K | 21.4 | –
327.06 K | – | 27.46
328.15 K | 21.08 | –
329.8 K | – | 30.6
330.65 K | 20.87 | –
331.39 K | – | 32.49
333.15 K | 20.5 | –
333.19 K | – | 34.85
334.73 K | – | 36.94
335.65 K | 20.28 | –
336.84 K | – | 39.92
338.15 K | 19.95 | –
338.83 K | – | 42.91
340.3 K | – | 45.25
342.6 K | – | 49.13
344.85 K | – | 53.18
347.05 K | – | 57.4
348.94 K | – | 61.22
350.71 K | – | 64.98
352.9 K | – | 69.89
354.83 K | – | 74.51
356.8 K | – | 79.34
358.65 K | – | 84.17
360.61 K | – | 89.59
361.79 K | – | 92.94
362.46 K | – | 94.88
363.67 K | – | 98.45
364.18 K | – | 100.08
364.61 K | – | 101.33
